{
  "source": "patent US20060063244A1",
  "about": "“Methods and composition for the production of orthogonal tRNA-aminoacyltRNA synthetase pairs” (The Scripps Research Institute, priority 2001, published 2006)",
  "molecules": {"B1": {"name": "Methanococcus jannaschii synthetase: leucyl tRNA synthetase cloned from Methanococcus jannaschii (protein, UniProt Q58050 1-942, looked up)", "Leucine--tRNA ligase": "MMVMIDFKEIEKKWQKRWEEAKIFEANPDDREKFFITAAFPYLNGVLHAGHLRTFTIPEVVARFQRMKNKNVLWTFGYHVTGTPILGLAELIKNRDEKTIWAYTELHGIPKEELLELTTPEKIVEYFSKKAEEAFKRMGFSLDWRRNFKTDDKVFNKFIEWQFHKLKEKGLIVKGSHPVRYCPRCDNPVEDHDILVGENATLVEYILIKFTTEDGCIMPMATLRPETVFGVTNVWVNPEATYVKAKVYLEKETENGIELIENGIWIMAKECAEKLKHQDRKIEIIEEFKGEQLINKKVKNPVTGKEVPILPAKFVKTNIGTGCVMSVPAHAPYDYIALRDLGLVDEIGLIPLINVPGYGKYPAKEIVEKMGIKSQEEEDKLEEATKKIYKDEFHKGVLNENCLDYEGIPVREIKDKLTKDLIDKGLAEIMYEFSEEKVICRCGTPCIVKMVKGQWFIKYSDEKWKELAHKCIDKMRFIPENLRQVFHEKIDWMKDKACVRRRGLGTKFPFEEGWVIESLSDSTIYPAYYTVAKYINQHNIKPEQLTLELFDYVFLGKGDVDKIAKETGIPKDIIEGMRKEFIYYYPVDWRCSAKDLIPNHLTFYIFNHVAIFPEEFWPRGIVVNGYVTIEGKKLSKSKGPVLPVLEVAEKFGADVGRFYITTCAELPQDADIKFKEMENTKKVLERLYLFAKEIAERRGETGEEFSYIDKWLLSRLYKAVKQYDEYMENFELRKAGILLYQLLDDLKWYRRRGGNNIRVLEEFLEVIIKLMMPFTPHLCEEMWEILGKEGFVSLAKFPEVKEEFINDEIEKGEEYLKAVMEDIKEIINVAKVQPKRIYLYTADDWKYEILKIIKENEGKTIKELMPIIMKNPEFRKYGKEIPKLVNQLIKLNAEIINEVEVLENAKEFLKKEVGVEDIIINGEDKANKKRVAIPFKPAIYLE"}, "B2": {"name": "Methanobacterium thermoautotrophicum synthetase: leucyl-tRNA synthetase from Methanobacterium thermoautotrophicum (protein, UniProt O27552 1-937, looked up)", "Leucine--tRNA ligase": "MDIERKWRDRWRDAGIFQADPDDREKIFLTVAYPYPSGAMHIGHGRTYTVPDVYARFKRMQGYNVLFPMAWHVTGAPVIGIARRIQRKDPWTLKIYREVHRVPEDELERFSDPEYIVEYFSREYRSVMEDMGYSIDWRREFKTTDPTYSRFIQWQIRKLRDLGLVRKGAHPVKYCPECENPVGDHDLLEGEGVAINQLTLLKFKLGDSYLVAATFRPETIYGATNLWLNPDEDYVRVETGGEEWIISRAAVDNLSHQKLDLKVSGDVNPGDLIGMCVENPVTGQEHPILPASFVDPEYATGVVFSVPAHAPADFIALEDLRTDHELLERYGLEDVVADIEPVNVIAVDGYGEFPAAEVIEKFGVRNQEDPRLEDATGELYKIEHARGVMSSHIPVYGGMKVSEAREVIADELKDQGLADEMYEFAERPVICRCGGRCVVRVMEDQWFMKYSDDAWKDLAHRCLDGMKIIPEEVRANFEYYIDWLNDWACSRRIGLGTRLPWDERWIIEPLTDSTIYMAYYTIAHRLREMDAGEMDDEFFDAIFLDDSGTFEDLREEFRYWYPLDWRLSAKDLIGNHLTFHIFHHSAIFPESGWPRGAVVFGMGLLEGNKMSSSKGNVILLRDAIEKHGADVVRLFLMSSAEPWQDFDWRESEVIGTRRRIEWFREFGERVSGILDGRPVLSEVTPAEPESFIGRWMMGQLNQRIREATRALESFQTRKAVQEALYLLKKDVDHYLKRVEGRVDDEVKSVLANVLHAWIRLMAPFIPYTAEEMWERYGGEGFVAEAPWPDFSDDAESRDVQVAEEMVQNTVRDIQEIMKILGSTPERVHIYTSPKWKWDVLRVAAEVGKLDMGSIMGRVSAEGIHDNMKEVAEFVRRIIRDLGKSEVTVIDEYSVLMDASDYIESEVGARVVIHSKPDYDPENKAVNAVPLKPAIYLE"}, "B3": {"name": "T214Q: editing-domain point mutant of Methanobacterium thermoautotrophicum leucyl-tRNA synthetase (protein, UniProt O27552 1-937, looked up, variant T214Q)", "Leucine--tRNA ligase": "MDIERKWRDRWRDAGIFQADPDDREKIFLTVAYPYPSGAMHIGHGRTYTVPDVYARFKRMQGYNVLFPMAWHVTGAPVIGIARRIQRKDPWTLKIYREVHRVPEDELERFSDPEYIVEYFSREYRSVMEDMGYSIDWRREFKTTDPTYSRFIQWQIRKLRDLGLVRKGAHPVKYCPECENPVGDHDLLEGEGVAINQLTLLKFKLGDSYLVAAQFRPETIYGATNLWLNPDEDYVRVETGGEEWIISRAAVDNLSHQKLDLKVSGDVNPGDLIGMCVENPVTGQEHPILPASFVDPEYATGVVFSVPAHAPADFIALEDLRTDHELLERYGLEDVVADIEPVNVIAVDGYGEFPAAEVIEKFGVRNQEDPRLEDATGELYKIEHARGVMSSHIPVYGGMKVSEAREVIADELKDQGLADEMYEFAERPVICRCGGRCVVRVMEDQWFMKYSDDAWKDLAHRCLDGMKIIPEEVRANFEYYIDWLNDWACSRRIGLGTRLPWDERWIIEPLTDSTIYMAYYTIAHRLREMDAGEMDDEFFDAIFLDDSGTFEDLREEFRYWYPLDWRLSAKDLIGNHLTFHIFHHSAIFPESGWPRGAVVFGMGLLEGNKMSSSKGNVILLRDAIEKHGADVVRLFLMSSAEPWQDFDWRESEVIGTRRRIEWFREFGERVSGILDGRPVLSEVTPAEPESFIGRWMMGQLNQRIREATRALESFQTRKAVQEALYLLKKDVDHYLKRVEGRVDDEVKSVLANVLHAWIRLMAPFIPYTAEEMWERYGGEGFVAEAPWPDFSDDAESRDVQVAEEMVQNTVRDIQEIMKILGSTPERVHIYTSPKWKWDVLRVAAEVGKLDMGSIMGRVSAEGIHDNMKEVAEFVRRIIRDLGKSEVTVIDEYSVLMDASDYIESEVGARVVIHSKPDYDPENKAVNAVPLKPAIYLE"}},
  "key": {"[1]": {"tested_on": "yeast PheRS / Escherichia coli PheRS", "conditions": "cited from earlier work"}, "E. coli cells": {"tested_on": "E. coli cells", "assay": "LC/MS analysis of toluenized E. coli cells grown with unnatural amino acid", "assay_type": "cell-based", "conditions": "E. coli grown in the presence of the amino acid", "excerpt": "Generality of aminoacyl tRNA synthetase evolution. […] The enzyme can be evolved to accommodate a variety of functionalities in place of the phenol side chain of tyrosine and can do so with high selectivity. […] It was not possible to identify an enzyme variant that could accept the pCF unnatural amino acid. A second attempt to evolve a synthetase to accept the pCF amino acid was also unsuccessful."}, "mutant TyrRS": {"target": "T1, mutant TyrRS (Methanocaldococcus jannaschii, UniProt Q57834, D158A/E107T/L162P/N268S/Y32Q)", "T1 construct": "His6 (C); made in house", "T1 sequence (Q57834 whole entry Y32Q/E107T/D158A/L162P/N268S)": "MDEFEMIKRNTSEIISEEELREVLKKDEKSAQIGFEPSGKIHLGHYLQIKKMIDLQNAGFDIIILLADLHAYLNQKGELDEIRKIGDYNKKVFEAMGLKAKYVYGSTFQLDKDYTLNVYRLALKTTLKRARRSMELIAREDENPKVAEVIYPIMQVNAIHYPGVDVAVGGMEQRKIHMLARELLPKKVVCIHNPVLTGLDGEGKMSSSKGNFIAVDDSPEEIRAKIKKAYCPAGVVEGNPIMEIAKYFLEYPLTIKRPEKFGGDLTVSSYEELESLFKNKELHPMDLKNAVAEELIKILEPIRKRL", "assay": "Pyrophosphate-exchange assay of adenylate formation", "assay_type": "biochemical, Methanococcus jannaschii", "method": "(§1) Kinetics of adenylate formation of O-methyl-L-tyrosine and tyrosine with adenosine triphosphate (ATP) catalyzed by the mutant TyrRS were analyzed in vitro using a pyrophosphate-exchange assay at 37° C. For example, the mutant TyrRS gene with six histidines at its C-terminus was cloned into plasmid pQE-60 (Qiagen, CA) to generate plasmid pQE-mJYRS. Protein was purified by immobilized metal affinity chromatography according to manufacture's protocol (Qiagen, CA). Pyrophosphate (PPi) exchange was carried out at 37° C. in a reaction mixture containing 100 mM TrisHCl (pH7.5), 10 mM KF, 5 mM MgCl2, 2 mM ATP, 2 mM NaPPi, 0.1 mg/mL bovine serum albumin, approximately 0.01 μCi/μL [^32P]NaPPi, and various concentrations of tyrosine or O-methyl-L-tyrosine. Reactions were initiated with the addition of the purified mutant TyrRS, and aliquots were periodically taken and quenched with 0.2 M NaPPi, 7% perchloric acid, and 2% activated charcoal. The charcoal was filtered and washed with 10 mM NaPPi (pH2), then measured by scintillation counting to determine the ^32P levels in charcoal-adsorbed ATP. Values of kcat and Km were calculated by direct fitting of the Michaelis-Menten equation using nonlinear regression analysis."}, "Escherichia coli": {"tested_on": "Escherichia coli", "assay": "Effect on growth of Escherichia coli host cells", "assay_type": "cell-based", "conditions": "1 mM added to medium"}, "amber nonsense codon": {"tested_on": "amber nonsense codon", "assay": "Fidelity of translation by analysis of dihydrofolate reductase containing the unnatural amino acid", "assay_type": "cell-based, Escherichia coli", "conditions": "incorporation in response to amber nonsense codon", "excerpt": "A unique transfer RNA (tRNA)-aminoacyl tRNA synthetase pair has been generated that expands the number of genetically encoded amino acids in Escherichia coli. When introduced into Escherichia coli, this pair leads to the in vivo incorporation of the synthetic amino acid O-methyl-L-tyrosine, added exogenously to the growth medium, into protein in response to an amber nonsense codon. The fidelity of translation is greater than 99%, as determined by analysis of dihydrofolate reductase containing the unnatural amino acid. This approach provides a general method for increasing the genetic repertoire of living cells to include a variety of amino acids with novel structural, chemical and physical properties not found in the common twenty amino acids."}, "[2]": {"tested_on": "valine position in the native protein", "conditions": "edit-defective ValRS strain grown with Abu; cited from earlier work"}, "[3]": {"tested_on": "COc1ccc(C[C@H](N)C(=O)O)cc1", "assay": "Pyrophosphate-exchange assay of adenylate formation", "assay_type": "biochemical, Methanococcus jannaschii", "conditions": "other: mutant TyrRS, 37° C.", "method": "as §1"}, "[4]": {"tested_on": "N[C@@H](Cc1ccc(O)cc1)C(=O)O", "assay": "Pyrophosphate-exchange assay of adenylate formation", "assay_type": "biochemical, Methanococcus jannaschii", "conditions": "other: mutant TyrRS, 37° C.", "method": "as §1"}, "[5]": {"tested_on": "Escherichia coli total tRNA / purified tRNA from Halobacterium", "assay": "In vitro aminoacylation by archaeal leucyl-tRNA synthetases", "assay_type": "biochemical", "method": "The next step involved determination of a synthetase that charges the suppressor tRNA without interacting with host tRNA. The two chosen systems, Methanobacterium thermoautotrophicum and Methanococcus jannaschii were expressed, and aminoacylation was performed in vitro on purified tRNA from Halobacterium as a positive control, and for Escherichia coli total tRNA."}, "[6]": {"assay": "In vitro aminoacylation with leucine and methionine by editing-domain mutants of Methanobacterium thermoautotrophicum RS", "assay_type": "biochemical", "excerpt": "Next, point mutations were made in the editing domain. The catalytic core of the editing domain is well conserved across species and even for different amino acids, at least for the family of branched chain amino acids. Several of these conserved sites have previously been mutated, for example a T→P mutation, and found to knock out editing function. Mutants of Methanobacterium thermoautotrophicum RS were constructed that were similar to several known mutants, and also a 20 member NNK library derived from T214 was made. Proteins were expressed and examined in vitro for aminoacylation with leucine and methionine. None of the previously identified mutations were transferable to our system, but a desirable mutation was identified from the T214 library."}},
  "data": [
    {"molecule": "N[C@@H](Cc1ccc(F)cc1)C(=O)O", "note": "[p-F-Phe, p-fluorophenylalanine]", "values": [
      {"measurement": "share found at the Phe codon positions", "setting": "[1]", "value": 7, "unit": "%"},
      {"measurement": "share at the mutagenesis site", "setting": "[1]; excess p-F-Phe in growth media", "value": "64-75%"}
    ]},
    {"molecule": "N[C@@H](Cc1ccc(C(=O)O)cc1)C(=O)O", "note": "[pCF, p-Carboxyl-Phenylalanine]", "values": [
      {"measurement": "detection in cells by LC/MS", "setting": "E. coli cells", "value": "could not be detected"}
    ]},
    {"molecule": "COc1ccc(C[C@H](N)C(=O)O)cc1", "note": "[O-methyl-L-tyrosine]", "values": [
      {"measurement": "kcat/Km relative to tyrosine", "setting": "mutant TyrRS", "value": "about 100 fold"},
      {"measurement": "effect on growth rate of Escherichia coli", "setting": "Escherichia coli", "value": "does not significantly affect the growth rate"},
      {"measurement": "fidelity of translation", "setting": "amber nonsense codon", "value": "greater than 99%"}
    ]},
    {"molecule": "CCC(N)C(=O)O", "note": "(centres unmarked) [Abu, aminobutyrate]", "values": [
      {"measurement": "valines replaced at each valine position", "setting": "[2]", "value": "about 24%"}
    ]},
    {"molecule": "mutant TyrRS (Methanocaldococcus jannaschii DSM 2661; D158A/E107T/L162P/N268S/Y32Q)", "values": [
      {"measurement": "Km", "setting": "[3]", "value": "0.443 ± 0.093", "unit": "mM"},
      {"measurement": "kcat", "setting": "[3]", "value": "14±1×10^−3 s^−1"},
      {"measurement": "Km", "setting": "[4]", "value": "5.833 ± 0.902", "unit": "mM"},
      {"measurement": "kcat", "setting": "[4]", "value": "1.8±0.2×10^−3 s^−1"}
    ]},
    {"molecule": "N[C@@H](Cc1ccc(O)cc1)C(=O)O", "note": "[tyrosine]", "values": [
      {"measurement": "Km relative to O-methyl-L-tyrosine", "setting": "mutant TyrRS", "value": "approximately 13 fold"},
      {"measurement": "kcat relative to O-methyl-L-tyrosine", "setting": "mutant TyrRS", "value": "eight fold less"}
    ]},
    {"molecule": "B1", "values": [
      {"measurement": "charging of Escherichia coli total tRNA versus Halobacterium tRNA", "setting": "[5]", "value": "able to effectively charge Escherichia coli tRNA"}
    ]},
    {"molecule": "B2", "values": [
      {"measurement": "charging of Escherichia coli total tRNA versus Halobacterium tRNA", "setting": "[5]", "value": "specific towards the Halobacterium tRNA"}
    ]},
    {"molecule": "B3", "values": [
      {"measurement": "charging with leucine", "setting": "[6]", "value": "capable of charging with leucine"},
      {"measurement": "charging with methionine", "setting": "[6]", "value": "capable of charging methionine"}
    ]}
  ]
}
